Results as given in PubChem BioAssay AID330 (DTP/NCI, 2004).
Several values for one entry are separate records, joined by “and”; a condition that tells them apart may be missing. Identical values can stand only once. Toxic doses and inconclusive results are not listed. How the source made its calls: active means survival T/C of 150% or more; inactive means T/C below 125% in these data.

Tested on: P388 leukemia ip, CD2F1 mice, survival T/C
Assay: NCI In Vivo Anticancer Drug Screen. Data for tumor model P388 Leukemia (intraperitoneal) in CD2F1 (CDF1) mice
Conditions: endpoint: median survival time, higher = longer survival
Method in brief: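 Mice carrying the transplanted tumor received test compound or vehicle. Survival was recorded in each group, and the value is the treated-group measurement divided by that of the vehicle-treated control group.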

[1] = dose: 60.0 mg/kg/injection, schedule: Q01DX005 (ip), vehicle: saline with Tween-80
[2] = dose: 120.0 mg/kg/injection, schedule: Q01DX005 (ip), vehicle: saline with Tween-80
[3] = dose: 60.0 mg/kg/injection, schedule: Q01DX005 (ip), vehicle: Klucel (hydroxypropylcellulose) (HPC)
[4] = dose: 120.0 mg/kg/injection, schedule: Q01DX005 (ip), vehicle: Klucel (hydroxypropylcellulose) (HPC)
[5] = dose: 50.0 mg/kg/injection, schedule: Q01DX009 (ip), vehicle: saline with Tween-80
[6] = dose: 100.0 mg/kg/injection, schedule: Q01DX009 (ip), vehicle: saline with Tween-80
[7] = dose: 200.0 mg/kg/injection, schedule: Q01DX009 (ip), vehicle: saline with Tween-80
[8] = dose: 25.0 mg/kg/injection, schedule: Q01DX009 (ip), vehicle: saline with Tween-80
[9] = dose: 50.0 mg/kg/injection, schedule: Q01DX005 (ip), vehicle: Klucel (hydroxypropylcellulose) (HPC)
[10] = dose: 100.0 mg/kg/injection, schedule: Q01DX005 (ip), vehicle: Klucel (hydroxypropylcellulose) (HPC)
[11] = dose: 200.0 mg/kg/injection, schedule: Q01DX005 (ip), vehicle: Klucel (hydroxypropylcellulose) (HPC)
[12] = dose: 240.0 mg/kg/injection, schedule: Q01DX005 (ip), vehicle: Klucel (hydroxypropylcellulose) (HPC)
[13] = dose: 50.0 mg/kg/injection, schedule: Q01DX005 (ip), vehicle: saline with Tween-80
[14] = dose: 100.0 mg/kg/injection, schedule: Q01DX005 (ip), vehicle: saline with Tween-80
[15] = dose: 200.0 mg/kg/injection, schedule: Q01DX005 (ip), vehicle: saline with Tween-80

Measured: T/C

c1ccc(-c2ccc[n+](CC[n+]3cccc(-c4ccccn4)c3)c2)nc1
inactive: [1] 104 % of control | [2] 100 % of control

CCC(=O)c1cc(-c2cc(C(=O)CC)[nH]n2)n[nH]1
inactive: [3] 98 % of control | [4] 98 % of control

COCC1OC(OC2OCC3OC4(OCC(O)(C(C)OC)C5OCOC54)OC3C2OC)C(OC)C(O)C1OC1OC(C)C(OC)C(OC2OC(C)C3OC4(CC(O)C(OC5CC(OC6CC(C)([N+](=O)[O-])C(OC)C(C)O6)C(OC(=O)c6c(C)c(Cl)c(O)c(Cl)c6OC)C(C)O5)C(C)O4)OC3(C)C2O)C1O (configuration not stated)
inactive: dose: 12.5 mg/kg/injection, schedule: Q01DX009 (ip), vehicle: saline 118 % of control | dose: 25.0 mg/kg/injection, schedule: Q01DX009 (ip), vehicle: saline 103 % of control | dose: 50.0 mg/kg/injection, schedule: Q01DX009 (ip), vehicle: saline 98 % of control | dose: 100.0 mg/kg/injection, schedule: Q01DX009 (ip), vehicle: saline 105 % of control

C=C(C)c1nc2c(=O)nc(N)nc-2n(O)c1C
inactive: dose: 37.5 mg/kg/injection, schedule: Q01DX009 (ip), vehicle: saline with Tween-80 99 % of control | dose: 150.0 mg/kg/injection, schedule: Q01DX009 (ip), vehicle: saline with Tween-80 108 % of control

COC1=C(C)C(=O)c2[nH]ccc2C1=O
inactive: dose: 100.0 mg/kg/injection, schedule: Q04DX002 (ip), vehicle: saline with Tween-80 102 % of control

Cc1cc(OC2OC(CO)C(OC3OC(CO)C(O)C(O)C3O)C(O)C2O)c2c(c1)C(=O)c1cccc(O)c1C2=O (configuration not stated)
inactive: [5] 104 % of control | [6] 104 % of control | [7] 105 % of control

COc1ccc(C(C)c2cc3c(cc2OCC(=O)O)OCO3)cc1OC (configuration not stated)
inactive: dose: 50.0 mg/kg/injection, schedule: Q01DX005 (ip), vehicle: distilled water + Tween-80 95 % of control | dose: 100.0 mg/kg/injection, schedule: Q01DX005 (ip), vehicle: distilled water + Tween-80 102 % of control

O=C(c1ccc(C(=O)N2CC2)cc1)N1CC1
inactive: dose: 10.0 mg/kg/injection, schedule: Q04DX003 (ip), vehicle: saline with Tween-80 118 % of control | dose: 20.0 mg/kg/injection, schedule: Q04DX003 (ip), vehicle: saline with Tween-80 109 % of control

COc1cc(CCN(C)C)c(C2C(=O)c3ccc4c(c3C2=O)OCO4)cc1OC (configuration not stated)
inactive: dose: 0.15 mg/kg/injection, schedule: Q01DX005 (ip), vehicle: Klucel (hydroxypropylcellulose) (HPC) 103 % of control | dose: 0.3 mg/kg/injection, schedule: Q01DX005 (ip), vehicle: Klucel (hydroxypropylcellulose) (HPC) 104 % of control | dose: 0.6 mg/kg/injection, schedule: Q01DX005 (ip), vehicle: Klucel (hydroxypropylcellulose) (HPC) 100 % of control | dose: 1.2 mg/kg/injection, schedule: Q01DX005 (ip), vehicle: Klucel (hydroxypropylcellulose) (HPC) 99 % of control

N=C(N)SCCCCCCCCCCSC(=N)N
inactive: dose: 12.5 mg/kg/injection, schedule: Q01DX009 (ip), vehicle: saline with Tween-80 100 % of control and 90 % of control | [8] 98 % of control and 100 % of control | [5] 106 % of control

COC1CCC(NC(=O)N(N=O)C2CCC(OC)CC2)CC1 (configuration not stated)
inactive: dose: 25.0 mg/kg/injection, schedule: Q01DX001 (ip), vehicle: distilled water + Tween-80 109 % of control | dose: 50.0 mg/kg/injection, schedule: Q01DX001 (ip), vehicle: distilled water + Tween-80 100 % of control | dose: 100.0 mg/kg/injection, schedule: Q01DX001 (ip), vehicle: distilled water + Tween-80 100 % of control | dose: 200.0 mg/kg/injection, schedule: Q01DX001 (ip), vehicle: distilled water + Tween-80 105 % of control

CC1(Cc2c[nH]c(=O)[nH]c2=O)C(=O)NC(=O)NC1=O
inactive: dose: 50.0 mg/kg/injection, schedule: Q01DX009 (ip), vehicle: Klucel (hydroxypropylcellulose) (HPC) 105 % of control | dose: 100.0 mg/kg/injection, schedule: Q01DX009 (ip), vehicle: Klucel (hydroxypropylcellulose) (HPC) 100 % of control | dose: 200.0 mg/kg/injection, schedule: Q01DX009 (ip), vehicle: Klucel (hydroxypropylcellulose) (HPC) 98 % of control

Nc1ccc(NCC2CCCN3CCCCC23)c2c(=O)c3ccccc3sc12 (configuration not stated)
inactive: dose: 13.25 mg/kg/injection, schedule: Q01DX005 (ip), vehicle: saline with Tween-80 104 % of control | dose: 26.5 mg/kg/injection, schedule: Q01DX005 (ip), vehicle: saline with Tween-80 101 % of control | dose: 53.0 mg/kg/injection, schedule: Q01DX005 (ip), vehicle: saline with Tween-80 103 % of control | dose: 90.0 mg/kg/injection, schedule: Q01DX005 (ip), vehicle: saline with Tween-80 94 % of control | dose: 106.0 mg/kg/injection, schedule: Q01DX005 (ip), vehicle: saline with Tween-80 100 % of control | dose: 180.0 mg/kg/injection, schedule: Q01DX005 (ip), vehicle: saline with Tween-80 94 % of control | dose: 360.0 mg/kg/injection, schedule: Q01DX005 (ip), vehicle: saline with Tween-80 95 % of control

CC(C)=CC(=O)C1=C(O)C(=O)OC1
inactive: [5] 109 % of control | [6] 108 % of control | [7] 107 % of control

COC(C(=O)C(O)C(C)O)C1CC2C=C3C=C(OC4CC(OC5CC(O)C(OC)C(C)O5)C(OC(C)=O)C(C)O4)C(C)C(=O)C3=C(O)C2=C(O)C1OC1CC(OC2CC(OC3CC(C)(O)C(O)C(C)O3)C(O)C(C)O2)C(O)C(C)O1 (configuration not stated)
active: dose: 8.0 mg/kg/injection, schedule: Q01DX001 (ip), vehicle: water 154 % of control
inactive: dose: 0.25 mg/kg/injection, schedule: Q01DX001 (ip), vehicle: water 110 % of control | dose: 0.5 mg/kg/injection, schedule: Q01DX001 (ip), vehicle: water 112 % of control | dose: 1.0 mg/kg/injection, schedule: Q01DX001 (ip), vehicle: water 118 % of control | dose: 2.0 mg/kg/injection, schedule: Q01DX001 (ip), vehicle: water 124 % of control

CC(C)(C#N)NCCCCCCNC(C)(C)C#N
inactive: [9] 96 % of control | [10] 93 % of control | [11] 100 % of control

COc1cc2ccncc2cc1Oc1c(OC)c(OC)cc2ccncc12
inactive: [3] 100 % of control | [4] 90 % of control | [12] 100 % of control

CCN(CC)/C([Se])=N/N=C(\C)c1ccccn1
inactive: dose: 100.0 mg/kg/injection, schedule: Q04DX003 (ip), vehicle: Klucel (hydroxypropylcellulose) (HPC) 108 % of control | dose: 200.0 mg/kg/injection, schedule: Q04DX003 (ip), vehicle: Klucel (hydroxypropylcellulose) (HPC) 102 % of control

CC1(C)OC2OC3C(CN)OC(c4ccccc4)OC3C2O1 (configuration not stated)
inactive: [13] 105 % of control | [14] 103 % of control | [15] 86 % of control

C=CCOc1cc(=O)[nH]c2ccccc12
inactive: [3] 100 % of control | [4] 97 % of control | [12] 91 % of control

CSC#CC(Sc1c(Cl)c(Cl)c(Cl)c(Cl)c1Cl)=C(Sc1c(Cl)c(Cl)c(Cl)c(Cl)c1Cl)Sc1c(Cl)c(Cl)c(Cl)c(Cl)c1Cl
inactive: [5] 99 % of control | [6] 93 % of control | [7] 92 % of control

O=C(NCCNc1ccccc1)C12CC3CC(CC(C3)C1)C2
inactive: [9] 100 % of control | [10] 95 % of control | [11] 95 % of control

CC(O)CCc1nc2ccccc2[nH]1 (configuration not stated)
inactive: [13] 95 % of control | [14] 100 % of control | [15] 95 % of control

O=C1CCC(Cc2ccccc2Br)C(=O)N1 (configuration not stated)
inactive: [1] 99 % of control | [2] 107 % of control | dose: 240.0 mg/kg/injection, schedule: Q01DX005 (ip), vehicle: saline with Tween-80 102 % of control

COc1cc2c(=O)oc3c(OC)c(O)cc4c(=O)oc(c1OC)c2c34
inactive: dose: 2.0 mg/kg/injection, schedule: Q01DX005 (ip), vehicle: saline with Tween-80 97 % of control | dose: 4.0 mg/kg/injection, schedule: Q01DX005 (ip), vehicle: saline with Tween-80 100 % of control and 96 % of control and 98 % of control | dose: 8.0 mg/kg/injection, schedule: Q01DX005 (ip), vehicle: saline with Tween-80 92 % of control and 96 % of control and 98 % of control | dose: 16.0 mg/kg/injection, schedule: Q01DX005 (ip), vehicle: saline with Tween-80 87 % of control and 91 % of control | dose: 32.0 mg/kg/injection, schedule: Q01DX005 (ip), vehicle: saline with Tween-80 89 % of control

NC(=NCCCC(NC(=O)c1ccccc1)C(=O)O)NC(=O)c1ccccc1 (configuration not stated)
inactive: [8] 108 % of control and 91 % of control | [5] 100 % of control and 90 % of control | [6] 93 % of control and 96 % of control | [7] 86 % of control and 97 % of control
